# Measured values as given in ChEMBL document CHEMBL3797052 (Eur J Med Chem, 2016).
# System: not listed separately
# Test: Antiproliferative activity against human NCI-ADR-RES cells assessed as cell growth at 10^-5 M after 48 hrs by sulforhodamine B assay
# Type: functional
# Conditions: read-out: Activity
row,SMILES,growth at 10 µM
1,CNC(=O)c1cc(Oc2ccc3nc(NC(=O)Nc4ccc(F)cc4F)sc3c2)ccn1,45.5%
2,CNC(=O)c1cc(Oc2ccc3nc(NC(=O)Nc4ccc(C(F)(F)F)cc4)sc3c2)ccn1,58.4%

# System: HT-29
# Test: Antiproliferative activity against human HT-29 cells assessed as cell growth at 10^-5 M after 48 hrs by sulforhodamine B assay
# Type: functional
# Conditions: HT-29, 48 h, read-out: Activity
row,SMILES,growth at 10 µM
1,CNC(=O)c1cc(Oc2ccc3nc(NC(=O)Nc4ccc(F)cc4F)sc3c2)ccn1,58.8%
2,CNC(=O)c1cc(Oc2ccc3nc(NC(=O)Nc4ccc(C(F)(F)F)cc4)sc3c2)ccn1,78.4%

# System: not listed separately
# Test: Antiproliferative activity against human LOXIMVI cells assessed as cell growth at 10^-5 M after 48 hrs by sulforhodamine B assay
# Type: functional
# Conditions: LOX IMVI, read-out: Activity
row,SMILES,growth at 10 µM
1,CNC(=O)c1cc(Oc2ccc3nc(NC(=O)Nc4ccc(F)cc4F)sc3c2)ccn1,52.1%
2,CNC(=O)c1cc(Oc2ccc3nc(NC(=O)Nc4ccc(C(F)(F)F)cc4)sc3c2)ccn1,48.1%

# System: ACHN
# Test: Antiproliferative activity against human ACHN cells assessed as cell growth at 10^-5 M after 48 hrs by sulforhodamine B assay
# Type: functional
# Conditions: read-out: Activity
row,SMILES,growth at 10 µM
1,CNC(=O)c1cc(Oc2ccc3nc(NC(=O)Nc4ccc(F)cc4F)sc3c2)ccn1,60.6%
2,CNC(=O)c1cc(Oc2ccc3nc(NC(=O)Nc4ccc(C(F)(F)F)cc4)sc3c2)ccn1,73.4%

# System: not listed separately
# Test: Antiproliferative activity against human HCT116 cells assessed as cell growth at 10^-5 M after 48 hrs by sulforhodamine B assay
# Type: functional
# Conditions: HCT-116, 48 h, read-out: Activity
row,SMILES,growth at 10 µM
1,CNC(=O)c1cc(Oc2ccc3nc(NC(=O)Nc4ccc(F)cc4F)sc3c2)ccn1,20.7%
2,CNC(=O)c1cc(Oc2ccc3nc(NC(=O)Nc4ccc(C(F)(F)F)cc4)sc3c2)ccn1,7.67%

# System: not listed separately
# Test: Antiproliferative activity against human UACC62 cells assessed as cell growth at 10^-5 M after 48 hrs by sulforhodamine B assay
# Type: functional
# Conditions: UACC-62, 48 h, read-out: Activity
row,SMILES,growth at 10 µM
1,CNC(=O)c1cc(Oc2ccc3nc(NC(=O)Nc4ccc(F)cc4F)sc3c2)ccn1,65.1%
2,CNC(=O)c1cc(Oc2ccc3nc(NC(=O)Nc4ccc(C(F)(F)F)cc4)sc3c2)ccn1,56%

# System: SR
# Test: Antiproliferative activity against human SR cells assessed as cell growth at 10^-5 M after 48 hrs by sulforhodamine B assay
# Type: functional
# Conditions: read-out: Activity
row,SMILES,growth at 10 µM
1,CNC(=O)c1cc(Oc2ccc3nc(NC(=O)Nc4ccc(F)cc4F)sc3c2)ccn1,80.4%
2,CNC(=O)c1cc(Oc2ccc3nc(NC(=O)Nc4ccc(C(F)(F)F)cc4)sc3c2)ccn1,70.6%

# System: not listed separately
# Test: Antiproliferative activity against human DU145 cells assessed as cell growth at 10^-5 M after 48 hrs by sulforhodamine B assay
# Type: functional
# Conditions: DU-145, 48 h, read-out: Activity
row,SMILES,growth at 10 µM
1,CNC(=O)c1cc(Oc2ccc3nc(NC(=O)Nc4ccc(F)cc4F)sc3c2)ccn1,65.7%
2,CNC(=O)c1cc(Oc2ccc3nc(NC(=O)Nc4ccc(C(F)(F)F)cc4)sc3c2)ccn1,48.9%

# System: not listed separately
# Test: Antiproliferative activity against human SNB19 cells assessed as cell growth at 10^-5 M after 48 hrs by sulforhodamine B assay
# Type: functional
# Conditions: SNB-19, 48 h, read-out: Activity
row,SMILES,growth at 10 µM
1,CNC(=O)c1cc(Oc2ccc3nc(NC(=O)Nc4ccc(F)cc4F)sc3c2)ccn1,71.1%
2,CNC(=O)c1cc(Oc2ccc3nc(NC(=O)Nc4ccc(C(F)(F)F)cc4)sc3c2)ccn1,79.3%

# System: not listed separately
# Test: Antiproliferative activity against human RXF393 cells assessed as cell growth at 10^-5 M after 48 hrs by sulforhodamine B assay
# Type: functional
# Conditions: RXF 393, 48 h, read-out: Activity
row,SMILES,growth at 10 µM
1,CNC(=O)c1cc(Oc2ccc3nc(NC(=O)Nc4ccc(F)cc4F)sc3c2)ccn1,42.3%
2,CNC(=O)c1cc(Oc2ccc3nc(NC(=O)Nc4ccc(C(F)(F)F)cc4)sc3c2)ccn1,85.5%

# System: CCRF-CEM
# Test: Antiproliferative activity against human CCRF-CEM cells assessed as cell growth at 10^-5 M after 48 hrs by sulforhodamine B assay
# Type: functional
# Conditions: read-out: Activity
row,SMILES,growth at 10 µM
1,CNC(=O)c1cc(Oc2ccc3nc(NC(=O)Nc4ccc(F)cc4F)sc3c2)ccn1,89.7%
2,CNC(=O)c1cc(Oc2ccc3nc(NC(=O)Nc4ccc(C(F)(F)F)cc4)sc3c2)ccn1,68.1%

# System: not listed separately
# Test: Antiproliferative activity against human HCC2998 cells assessed as cell growth at 10^-5 M after 48 hrs by sulforhodamine B assay
# Type: functional
# Conditions: HCC 2998, 48 h, read-out: Activity
row,SMILES,growth at 10 µM
1,CNC(=O)c1cc(Oc2ccc3nc(NC(=O)Nc4ccc(F)cc4F)sc3c2)ccn1,88.1%
2,CNC(=O)c1cc(Oc2ccc3nc(NC(=O)Nc4ccc(C(F)(F)F)cc4)sc3c2)ccn1,104%

# System: not listed separately
# Test: Antiproliferative activity against human SF268 cells assessed as cell growth at 10^-5 M after 48 hrs by sulforhodamine B assay
# Type: functional
# Conditions: SF-268, 48 h, read-out: Activity
row,SMILES,growth at 10 µM
1,CNC(=O)c1cc(Oc2ccc3nc(NC(=O)Nc4ccc(F)cc4F)sc3c2)ccn1,76.1%
2,CNC(=O)c1cc(Oc2ccc3nc(NC(=O)Nc4ccc(C(F)(F)F)cc4)sc3c2)ccn1,65%

# System: not listed separately
# Test: Antiproliferative activity against human SW620 cells assessed as cell growth at 10^-5 M after 48 hrs by sulforhodamine B assay
# Type: functional
# Conditions: SW-620, 48 h, read-out: Activity
row,SMILES,growth at 10 µM
1,CNC(=O)c1cc(Oc2ccc3nc(NC(=O)Nc4ccc(F)cc4F)sc3c2)ccn1,99.9%
2,CNC(=O)c1cc(Oc2ccc3nc(NC(=O)Nc4ccc(C(F)(F)F)cc4)sc3c2)ccn1,37.9%

# System: not listed separately
# Test: Antiproliferative activity against human PC3 cells assessed as cell growth at 10^-5 M after 48 hrs by sulforhodamine B assay
# Type: functional
# Conditions: PC-3, 48 h, read-out: Activity
row,SMILES,growth at 10 µM
1,CNC(=O)c1cc(Oc2ccc3nc(NC(=O)Nc4ccc(F)cc4F)sc3c2)ccn1,65.9%
2,CNC(=O)c1cc(Oc2ccc3nc(NC(=O)Nc4ccc(C(F)(F)F)cc4)sc3c2)ccn1,58.8%

# System: not listed separately
# Test: Antiproliferative activity against human SF539 cells assessed as cell growth at 10^-5 M after 48 hrs by sulforhodamine B assay
# Type: functional
# Conditions: SF-539, 48 h, read-out: Activity
row,SMILES,growth at 10 µM
1,CNC(=O)c1cc(Oc2ccc3nc(NC(=O)Nc4ccc(F)cc4F)sc3c2)ccn1,61.7%
2,CNC(=O)c1cc(Oc2ccc3nc(NC(=O)Nc4ccc(C(F)(F)F)cc4)sc3c2)ccn1,82.2%

# System: EKVX
# Test: Antiproliferative activity against human EKVX cells assessed as cell growth at 10^-5 M after 48 hrs by sulforhodamine B assay
# Type: functional
# Conditions: read-out: Activity
row,SMILES,growth at 10 µM
1,CNC(=O)c1cc(Oc2ccc3nc(NC(=O)Nc4ccc(F)cc4F)sc3c2)ccn1,89.8%
2,CNC(=O)c1cc(Oc2ccc3nc(NC(=O)Nc4ccc(C(F)(F)F)cc4)sc3c2)ccn1,53.5%

# System: NCI-H322M
# Test: Antiproliferative activity against human NCI-H322M cells assessed as cell growth at 10^-5 M after 48 hrs by sulforhodamine B assay
# Type: functional
# Conditions: read-out: Activity
row,SMILES,growth at 10 µM
1,CNC(=O)c1cc(Oc2ccc3nc(NC(=O)Nc4ccc(F)cc4F)sc3c2)ccn1,62.2%
2,CNC(=O)c1cc(Oc2ccc3nc(NC(=O)Nc4ccc(C(F)(F)F)cc4)sc3c2)ccn1,80.5%

# System: not listed separately
# Test: Antiproliferative activity against human HL-60(TB) cells assessed as cell growth at 10^-5 M after 48 hrs by sulforhodamine B assay
# Type: functional
# Conditions: HL-60, 48 h, read-out: Activity
row,SMILES,growth at 10 µM
1,CNC(=O)c1cc(Oc2ccc3nc(NC(=O)Nc4ccc(F)cc4F)sc3c2)ccn1,98.3%
2,CNC(=O)c1cc(Oc2ccc3nc(NC(=O)Nc4ccc(C(F)(F)F)cc4)sc3c2)ccn1,120%

# System: MDA-MB-435
# Test: Antiproliferative activity against human MDA-MB-435 cells assessed as cell growth at 10^-5 M after 48 hrs by sulforhodamine B assay
# Type: functional
# Conditions: MDA-MB-435, 48 h, read-out: Activity
row,SMILES,growth at 10 µM
1,CNC(=O)c1cc(Oc2ccc3nc(NC(=O)Nc4ccc(F)cc4F)sc3c2)ccn1,62.5%
2,CNC(=O)c1cc(Oc2ccc3nc(NC(=O)Nc4ccc(C(F)(F)F)cc4)sc3c2)ccn1,40.9%

# System: K562
# Test: Antiproliferative activity against human K562 cells assessed as cell growth at 10^-5 M after 48 hrs by sulforhodamine B assay
# Type: functional
# Conditions: K562, 48 h, read-out: Activity
row,SMILES,growth at 10 µM
1,CNC(=O)c1cc(Oc2ccc3nc(NC(=O)Nc4ccc(F)cc4F)sc3c2)ccn1,71.5%
2,CNC(=O)c1cc(Oc2ccc3nc(NC(=O)Nc4ccc(C(F)(F)F)cc4)sc3c2)ccn1,76.3%

# System: NCI-H23
# Test: Antiproliferative activity against human NCI-H23 cells assessed as cell growth at 10^-5 M after 48 hrs by sulforhodamine B assay
# Type: functional
# Conditions: NCI-H23, 48 h, read-out: Activity
row,SMILES,growth at 10 µM
1,CNC(=O)c1cc(Oc2ccc3nc(NC(=O)Nc4ccc(F)cc4F)sc3c2)ccn1,47%
2,CNC(=O)c1cc(Oc2ccc3nc(NC(=O)Nc4ccc(C(F)(F)F)cc4)sc3c2)ccn1,63.4%

# System: not listed separately
# Test: Antiproliferative activity against human OVCAR5 cells assessed as cell growth at 10^-5 M after 48 hrs by sulforhodamine B assay
# Type: functional
# Conditions: OVCAR-5, 48 h, read-out: Activity
row,SMILES,growth at 10 µM
1,CNC(=O)c1cc(Oc2ccc3nc(NC(=O)Nc4ccc(F)cc4F)sc3c2)ccn1,95.2%
2,CNC(=O)c1cc(Oc2ccc3nc(NC(=O)Nc4ccc(C(F)(F)F)cc4)sc3c2)ccn1,93.9%

# System: not listed separately
# Test: Antiproliferative activity against human SF295 cells assessed as cell growth at 10^-5 M after 48 hrs by sulforhodamine B assay
# Type: functional
# Conditions: SF-295, 48 h, read-out: Activity
row,SMILES,growth at 10 µM
1,CNC(=O)c1cc(Oc2ccc3nc(NC(=O)Nc4ccc(F)cc4F)sc3c2)ccn1,76.7%
2,CNC(=O)c1cc(Oc2ccc3nc(NC(=O)Nc4ccc(C(F)(F)F)cc4)sc3c2)ccn1,63.2%

# System: U-251
# Test: Antiproliferative activity against human U251 cells assessed as cell growth at 10^-5 M after 48 hrs by sulforhodamine B assay
# Type: functional
# Conditions: U-251, 48 h, read-out: Activity
row,SMILES,growth at 10 µM
1,CNC(=O)c1cc(Oc2ccc3nc(NC(=O)Nc4ccc(F)cc4F)sc3c2)ccn1,37%
2,CNC(=O)c1cc(Oc2ccc3nc(NC(=O)Nc4ccc(C(F)(F)F)cc4)sc3c2)ccn1,22.4%

# System: SK-MEL-5
# Test: Antiproliferative activity against human SK-MEL-5 cells assessed as cell growth at 10^-5 M after 48 hrs by sulforhodamine B assay
# Type: functional
# Conditions: SK-MEL-5, 48 h, read-out: Activity
row,SMILES,growth at 10 µM
1,CNC(=O)c1cc(Oc2ccc3nc(NC(=O)Nc4ccc(F)cc4F)sc3c2)ccn1,39%
2,CNC(=O)c1cc(Oc2ccc3nc(NC(=O)Nc4ccc(C(F)(F)F)cc4)sc3c2)ccn1,56.9%

# System: MDA-MB-468
# Test: Antiproliferative activity against human MDA-MB-468 cells assessed as cell growth at 10^-5 M after 48 hrs by sulforhodamine B assay
# Type: functional
# Conditions: MDA-MB-468, 48 h, read-out: Activity
row,SMILES,growth at 10 µM
1,CNC(=O)c1cc(Oc2ccc3nc(NC(=O)Nc4ccc(F)cc4F)sc3c2)ccn1,51.2%
2,CNC(=O)c1cc(Oc2ccc3nc(NC(=O)Nc4ccc(C(F)(F)F)cc4)sc3c2)ccn1,49.9%
